{"source": "patent US20040006236A1", "about": "“Diaminopropionic acid derivatives” (priority 1999, published 2004)", "key": {"[1]": {"tested_on": "cell-surface Mac-1 adhesion to immobilized fibrinogen (HL-60 cells)", "assay": "Mac-1/Fibrinogen cell-based screening assay", "design": "species or system human", "details": "Homo sapiens, HL-60, HL-60 cells; read-out: Mac-1/Fgn Cell based Assay IC50", "procedure": "Cellular Mac-1/Fibrinogen antagonist activity, defined as the ability to inhibit cell-surface Mac-1 adhesion to immobilized fibrinogen, was quantitated by a cell based assay. Human fibrinogen was coated onto 96 well microtiter plates (1 μg in 100 μL TBS) overnight at 4° C. The plates were then blocked with 150 μL of 10% polyvinyl pyrrolidone (PVP) in TBS for 1 h at 37° C. Plates were washed 3 times (150 μL each) with TBS. […] A ten-fold excess of volume of the same buffer was added and cells were centrifuged. The medium was decanted and cells were resuspended at a concentration of 2×10^6 cells/mL in RPMI/0.05% BSA/0.2 mM MnCl2. Stock solutions (10 mM in DMSO) of test compounds were diluted to 2.5 mM with DMSO. […] Each sample was further diluted 50-fold with RPMI/0.05% BSA/0.2 mM MnCl2. Equal volumes of labeled cells were then added to assay tubes containing diluted compounds. […] Cells were incubated for 10 min at 37° C. with gentle shaking, then dispensed (100 μL per well) onto fibrinogen coated plates and incubated for 30 min at 37° C./5% CO2. Unbound cells were gently washed with TBS two times."}, "[2]": {"biological_target": "T1, LFA-1 binding to immobilized ICAM-1 (Homo sapiens, UniProt P05107+P20701)", "T1 construct": "made in house; host or cells: transfected 293 cells (LFA-1)", "T1 sequence (P20701 26-1170)": "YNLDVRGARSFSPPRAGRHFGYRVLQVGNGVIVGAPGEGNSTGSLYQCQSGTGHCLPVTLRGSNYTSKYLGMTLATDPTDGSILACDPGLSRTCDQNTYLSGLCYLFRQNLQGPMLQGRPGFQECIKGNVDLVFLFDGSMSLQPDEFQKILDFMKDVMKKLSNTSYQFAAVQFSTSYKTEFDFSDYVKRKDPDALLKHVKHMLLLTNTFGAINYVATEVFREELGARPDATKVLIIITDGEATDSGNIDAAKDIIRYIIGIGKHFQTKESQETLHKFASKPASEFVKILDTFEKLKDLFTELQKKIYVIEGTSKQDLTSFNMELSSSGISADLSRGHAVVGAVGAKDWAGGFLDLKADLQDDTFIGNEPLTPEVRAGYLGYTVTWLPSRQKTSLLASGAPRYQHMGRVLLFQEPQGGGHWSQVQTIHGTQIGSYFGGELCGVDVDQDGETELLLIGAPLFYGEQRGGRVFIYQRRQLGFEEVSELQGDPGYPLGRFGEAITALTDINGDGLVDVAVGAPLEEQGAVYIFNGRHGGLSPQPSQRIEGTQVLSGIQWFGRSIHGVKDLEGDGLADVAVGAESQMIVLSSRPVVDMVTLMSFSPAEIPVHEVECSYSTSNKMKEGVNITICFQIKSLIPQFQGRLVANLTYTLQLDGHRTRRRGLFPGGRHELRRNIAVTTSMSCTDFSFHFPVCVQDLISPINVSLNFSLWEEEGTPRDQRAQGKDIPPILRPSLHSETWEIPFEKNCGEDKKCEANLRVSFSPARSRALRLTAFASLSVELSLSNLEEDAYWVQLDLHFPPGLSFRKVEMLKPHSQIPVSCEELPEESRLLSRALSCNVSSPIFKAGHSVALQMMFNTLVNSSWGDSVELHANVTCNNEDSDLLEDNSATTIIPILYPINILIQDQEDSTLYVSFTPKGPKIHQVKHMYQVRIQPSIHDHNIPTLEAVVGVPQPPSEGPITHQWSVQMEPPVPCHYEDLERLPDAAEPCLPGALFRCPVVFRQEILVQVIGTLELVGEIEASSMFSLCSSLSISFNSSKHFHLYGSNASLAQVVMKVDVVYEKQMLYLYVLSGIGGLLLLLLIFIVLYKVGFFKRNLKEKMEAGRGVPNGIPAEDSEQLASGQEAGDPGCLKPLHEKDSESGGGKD", "T1 sequence (P05107 23-769)": "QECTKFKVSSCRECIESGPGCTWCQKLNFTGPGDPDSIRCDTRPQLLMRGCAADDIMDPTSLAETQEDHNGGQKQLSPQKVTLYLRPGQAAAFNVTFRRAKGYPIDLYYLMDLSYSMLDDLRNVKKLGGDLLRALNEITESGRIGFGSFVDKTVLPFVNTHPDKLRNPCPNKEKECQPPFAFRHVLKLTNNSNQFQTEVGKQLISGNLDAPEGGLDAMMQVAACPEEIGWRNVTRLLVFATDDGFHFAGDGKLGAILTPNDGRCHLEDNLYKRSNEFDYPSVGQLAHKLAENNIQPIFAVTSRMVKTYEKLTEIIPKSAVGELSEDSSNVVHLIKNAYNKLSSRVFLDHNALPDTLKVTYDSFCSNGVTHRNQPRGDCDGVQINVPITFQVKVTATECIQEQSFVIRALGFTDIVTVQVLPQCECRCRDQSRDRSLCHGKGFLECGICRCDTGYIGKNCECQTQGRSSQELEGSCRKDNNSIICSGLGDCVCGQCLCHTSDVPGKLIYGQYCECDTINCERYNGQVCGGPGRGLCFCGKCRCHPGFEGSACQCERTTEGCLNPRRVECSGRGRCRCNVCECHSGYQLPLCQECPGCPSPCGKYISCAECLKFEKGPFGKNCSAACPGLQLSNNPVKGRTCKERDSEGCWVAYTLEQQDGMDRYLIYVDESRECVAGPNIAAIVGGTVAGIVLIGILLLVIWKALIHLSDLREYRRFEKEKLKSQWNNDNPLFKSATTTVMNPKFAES", "assay": "LFA-1/ICAM-1 protein-protein assay (solid-phase ELISA)", "details": "read-out: LFA-1/ICAM-1 Protein-Protein Assay IC50", "procedure": "(a) LFA-1/ICAM-1 screening test: LFA-1/ICAM-1 antagonist activity, defined as the ability of compounds of the invention to block LFA-1 binding to immobilized ICAM-1, was quantitated using a solid-phase ELISA.\n(§1) Typically, fusion protein consisting of the entire extracellular domain of human ICAM-1 and the Fc domain of human IgG (5dICAM-Ig) was coated onto 96-well microtiter plates (0.15 μg in 100 μL PBS) overnight at 4° C. The plates were then blocked with 150 μL of 1% BSA/1 mM MnCl2/0.14 M NaCl/20 mM HEPES, pH 7.2 for 1 h at 37° C. and washed 3 times (150 μL each) with Wash Buffer (50 mM Tris, pH 7.4/100 mM NaCl/1 mM MnCl2/0.05% Tween 20). Stock solutions (100 μM in 100% DMSO) of test compounds were diluted 50 fold with 150 μL of Binding Buffer (0.05% BSA/0.05% Tween 20/1 mM MnCl2/0.14 M NaCl/20 mM HEPES, pH 7.2) plus 10% DMSO. […] Fifty μL per well of each dilution was added to the ICAM-1 coated plates, followed by 50 μL per well of membrane-bound LFA-1 (280 ng/mL in Binding Buffer) derived from transfected 293 cells. The plates were shaken vigorously for 1 min (room temperature) and gently for 2 h (37° C.). After incubation, the plates were washed 3 times (150 μL each) with Wash Buffer. Mouse anti-human integrin β2 monoclonal antibody was added (100 μL/well, 1 μg/mL in Binding Buffer) and allowed to incubate for 1 h (37° C.) with gentle agitation. The plates were then washed 3 times with Wash Buffer. HRP-conjugated goat anti-mouse IgG (100 μL/well, 1:1500 dilution in Binding Buffer) was added to each well, followed by incubation for 1 h (37° C.), and concluded by three washes (150 μL each) with Wash Buffer. TMB solution (100 μL per well) was added for color development (10 min). The reaction was stopped by the addition of 100 μL of 1 M H3PO4 to each well. The plates were then read at 450 nm. The inhibitory activities of test compounds were determined by the IC50s.\nas §1, with “LFA-1/ICAM-1 antagonist activity, defined as the ability to block LFA-1 binding to immobilized ICAM-1, was quantitated using a solid-phase ELISA. Typically,” for “Typically,”, “(0.05 %” for “(0.05%”, “nm.” for “nm. The inhibitory activities of test compounds were determined by the IC50s.”"}, "[3]": {"biological_target": "T2, ICAM-1 binding to immobilized Mac-1 (Homo sapiens, UniProt P05107+P11215)", "T2 construct": "made in house; host or cells: transfected 293 cells (Mac-1)", "T2 sequence (P05107 23-769, other chains not shown)": "as the sequence (P05107 23-769) above", "assay": "Mac-1/ICAM-1 screening assay (solid-phase ELISA)", "details": "read-out: Mac-1/ICAM-1 Protein-Protein Assay IC50", "procedure": "(b) Mac-1/ICAM-1 screening test: Mac-1/ICAM-1 antagonist activity, defined as the ability to compete with ICAM-1 binding to immobilized Mac-1, was quantitated by a solid-phase ELISA.\n(§2) Membrane-bound Mac-1 derived from transfected 293 cells was coated onto 96-well microtiter plates (50 μL/well, 3 μg/mL Mac-1 in 20 mM Hepes, pH 7.2/0.14 M NaCl/1 mM MnCl2) overnight at 4° C. The plates were blocked with 100 μL/well of 0.5% BSA in 20 mM Hepes, pH 7.2/0.14 M NaCl/1 mM MnCl2 at 37° C. for 1 h and washed 3 times (120 μL each) with Binding Buffer (20 mM Hepes, pH 7.2/0.14 M NaCl/1 mM MnCl2/0.05% Tween 20). Test compounds were dissolved in 100% DMSO and diluted 1:50 in Binding Buffer plus 10% DMSO. A series of 1:4 dilutions were performed for each compound (concentration range, 0.12 nM-20 μM). Each dilution (25 μL/well) was added to the plates, followed by 25 μL/well of 5 dICAM-Ig (40 μg/mL in Binding Buffer). The plates were shaken vigorously for 1 min (room temperature), followed by gentle agitation for 2 h (37° C.), and washed with Binding Buffer (3 times, 120 μL each). HRP-conjugated goat anti-human IgG(Fc-specific) antibody (0.125 μg/mL in Binding Buffer plus 0.05% BSA) was added to each well (50 μL/well), followed by incubation for 1 h at 37° C. The plates were then washed 3 times with Binding Buffer (120 μL each). TMB solution (100 μL/well) was added to each well for color development for 10 min. The reaction was stopped with 1 M H3PO4 (100 μL/well) and the plates were read at 450 nm. The inhibitory activities of test compounds were determined by the IC50s.\nas §2, with “Mac-1/ICAM-1 antagonist activity, defined as the ability to compete with ICAM-1 binding to immobilized Mac-1, was quantitated by a solid-phase ELISA. Membrane-bound” for “Membrane-bound”, “5dICAM-Ig” for “5 dICAM-Ig”, “nm.” for “nm. The inhibitory activities of test compounds were determined by the IC50s.”"}}}
{"compound": "O=C(NCc1cccc(O)c1)c1ccc(C(=O)N[C@@H](CNC(=O)c2cc([N+](=O)[O-])[nH]n2)C(=O)O)c(Cl)c1", "note": "[Example 152]", "values": [{"measurement": "IC50", "setting": "[1]", "result": 1220, "unit": "nM"}]}
{"compound": "O=C(NCc1cccc(O)c1)c1ccc(C(=O)N[C@@H](CNC(=O)c2cc(=O)[nH]c(=O)[nH]2)C(=O)O)c(Cl)c1", "note": "[Example 173]", "values": [{"measurement": "IC50", "setting": "[2]", "result": 0.6, "unit": "nM"}, {"measurement": "IC50", "setting": "[3]", "result": 36, "unit": "nM"}]}
{"compound": "O=C(NCc1cccc(O)c1)c1ccc(C(=O)N[C@@H](CNC(=O)c2cc3ccccc3o2)C(=O)O)c(Cl)c1", "note": "[Example 174]", "values": [{"measurement": "IC50", "setting": "[2]", "result": 3.4, "unit": "nM"}, {"measurement": "IC50", "setting": "[3]", "result": 91, "unit": "nM"}]}
{"compound": "O=C(NCc1cccc(O)c1)c1ccc(C(=O)N[C@@H](CNC(=O)c2ccc3[nH]cnc3c2)C(=O)O)c(Cl)c1", "note": "[Example 176]", "values": [{"measurement": "IC50", "setting": "[2]", "result": 1.2, "unit": "nM"}, {"measurement": "IC50", "setting": "[3]", "result": 54, "unit": "nM"}]}
{"compound": "O=C(NCc1cccc(O)c1)c1ccc(C(=O)N[C@@H](CNC(=O)c2nccc3ccccc23)C(=O)O)c(Cl)c1", "note": "[Example 180]", "values": [{"measurement": "IC50", "setting": "[2]", "result": 0.6, "unit": "nM"}, {"measurement": "IC50", "setting": "[3]", "result": 48, "unit": "nM"}]}
{"compound": "O=C(NCc1cccc(O)c1)c1ccc(C(=O)N[C@@H](CNC(=O)c2ccc3ccccc3n2)C(=O)O)c(Cl)c1", "note": "[Example 181]", "values": [{"measurement": "IC50", "setting": "[2]", "result": 12, "unit": "nM"}, {"measurement": "IC50", "setting": "[3]", "result": 176, "unit": "nM"}]}
{"compound": "O=C(NCc1cccc(O)c1)c1ccc(C(=O)N[C@@H](CNC(=O)c2ccnc3ccccc23)C(=O)O)c(Cl)c1", "note": "[Example 184]", "values": [{"measurement": "IC50", "setting": "[2]", "result": 2.5, "unit": "nM"}, {"measurement": "IC50", "setting": "[3]", "result": 91, "unit": "nM"}]}
{"compound": "O=C(NCc1cccc(O)c1)c1ccc(C(=O)N[C@@H](CNC(=O)c2cnnc3ccccc23)C(=O)O)c(Cl)c1", "note": "[Example 185]", "values": [{"measurement": "IC50", "setting": "[2]", "result": 1.3, "unit": "nM"}, {"measurement": "IC50", "setting": "[3]", "result": 187, "unit": "nM"}]}
{"compound": "O=C(NCc1cccc(O)c1)c1ccc(C(=O)N[C@@H](CNC(=O)c2nc3ccccc3nc2O)C(=O)O)c(Cl)c1", "note": "[Example 186]", "values": [{"measurement": "IC50", "setting": "[2]", "result": 1.6, "unit": "nM"}, {"measurement": "IC50", "setting": "[3]", "result": 167, "unit": "nM"}]}
{"compound": "O=C(NCc1cccc(O)c1)c1ccc(C(=O)N[C@@H](CNC(=O)c2cc3ccccc3oc2=O)C(=O)O)c(Cl)c1", "note": "[Example 188]", "values": [{"measurement": "IC50", "setting": "[2]", "result": 3.4, "unit": "nM"}, {"measurement": "IC50", "setting": "[3]", "result": 146, "unit": "nM"}]}
{"compound": "O=C(NCc1cccc(O)c1)c1ccc(C(=O)N[C@@H](CNC(=O)c2c3ccccc3cc3ccccc23)C(=O)O)c(Cl)c1", "note": "[Example 189]", "values": [{"measurement": "IC50", "setting": "[2]", "result": 18, "unit": "nM"}, {"measurement": "IC50", "setting": "[3]", "result": 1050, "unit": "nM"}]}
{"compound": "COc1ccc2nc3ccc(C(=O)NC[C@H](NC(=O)c4ccc(C(=O)NCc5cccc(O)c5)cc4Cl)C(=O)O)cn3c(=O)c2c1", "note": "[Example 191]", "values": [{"measurement": "IC50", "setting": "[2]", "result": 2.2, "unit": "nM"}, {"measurement": "IC50", "setting": "[3]", "result": 130, "unit": "nM"}]}
{"compound": "O=C(NC[C@H](NC(=O)c1c(F)cccc1Cl)C(=O)O)c1ccccc1", "note": "[Example 220]", "values": [{"measurement": "IC50", "setting": "[2]", "result": 14, "unit": "nM"}, {"measurement": "IC50", "setting": "[3]", "result": 304, "unit": "nM"}]}
{"compound": "O=C(COc1ccccc1)c1ccc(C(=O)N[C@@H](CNC(=O)c2cccs2)C(=O)O)c(Cl)c1", "note": "[Example 376, N-[2-chloro-4-(phenoxyacetyl)benzoyl]-3-(thiophene-2-carbonyl)amino-L-alanine]", "values": [{"measurement": "IC50", "setting": "[2]", "result": 37, "unit": "nM"}, {"measurement": "IC50", "setting": "[3]", "result": 152, "unit": "nM"}]}
